Data reported in the supplement of paper PMC5844555.

Experiments:
Experiment in all cases: 3' UTR reporter interaction score (median-centred robust z-score of log2 firefly/Renilla activity); higher = less repression of the 3' UTR reporter
Details in all cases: HEK293T; 48 h
PHOX2B = tested on: PHOX2B
How it was run: (§1)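 The interaction score is based on the log-transformed firefly/Renilla luciferase ratio, scaled as a robust z-score within each plate by median and median absolute deviation and median-centred for each miRNA; more negative scores indicate interaction. It was averaged over at least two independent screens. Readings were taken 48 h after HEK293T cells (10,000/well, 96-well plates) were co-transfected by DharmaFECT Duo with 100 ng firefly luc2P 3' UTR reporter, 20 ng Renilla pRL-TK and 2.5 pmol miRNA mimic.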

TP53 = tested on: TP53
How it was run: as §1

MYB = tested on: MYB
How it was run: as §1

RB1 = tested on: RB1
How it was run: as §1

MYCN = tested on: MYCN
How it was run: as §1

MYT1L = tested on: MYT1L
How it was run: as §1

BRCA2 = tested on: BRCA2
How it was run: as §1

EZH2 = tested on: EZH2
How it was run: as §1

NOTCH1 = tested on: NOTCH1
How it was run: as §1

MYC = tested on: MYC
How it was run: as §1

HRAS = tested on: HRAS
How it was run: as §1

FBXW7 = tested on: FBXW7
How it was run: as §1

ZEB2 = tested on: ZEB2
How it was run: as §1

PHF6 = tested on: PHF6
How it was run: as §1

UGAGAACUGAAUUCCAUGGGUU
3' UTR reporter interaction score (PHOX2B): -1.1
3' UTR reporter interaction score (TP53): -0.136
3' UTR reporter interaction score (MYB): 1.11
3' UTR reporter interaction score (RB1): -0.62
3' UTR reporter interaction score (MYCN): 0.702
3' UTR reporter interaction score (MYT1L): 0.806
3' UTR reporter interaction score (BRCA2): -1.66
3' UTR reporter interaction score (EZH2): 0.673
3' UTR reporter interaction score (NOTCH1): -0.245
3' UTR reporter interaction score (MYC): -0.0139
3' UTR reporter interaction score (HRAS): -0.164
3' UTR reporter interaction score (FBXW7): -0.989
3' UTR reporter interaction score (ZEB2): 1.41
3' UTR reporter interaction score (PHF6): 1.46

UGAGACCUCUGGGUUCUGAGCU
3' UTR reporter interaction score (PHOX2B): -0.781
3' UTR reporter interaction score (TP53): -1.24
3' UTR reporter interaction score (MYB): -1.3
3' UTR reporter interaction score (RB1): 0.176
3' UTR reporter interaction score (MYCN): 0.725
3' UTR reporter interaction score (MYT1L): 0.762
3' UTR reporter interaction score (BRCA2): -3.69
3' UTR reporter interaction score (EZH2): 1.01
3' UTR reporter interaction score (NOTCH1): 0.17
3' UTR reporter interaction score (MYC): 0.551
3' UTR reporter interaction score (HRAS): -0.0086
3' UTR reporter interaction score (FBXW7): 0.371
3' UTR reporter interaction score (ZEB2): 1.27
3' UTR reporter interaction score (PHF6): -0.429

UGAGAUGAAGCACUGUAGCUCA
3' UTR reporter interaction score (PHOX2B): -0.89
3' UTR reporter interaction score (TP53): -0.632
3' UTR reporter interaction score (MYB): 0.448
3' UTR reporter interaction score (RB1): -0.192
3' UTR reporter interaction score (MYCN): 0.577
3' UTR reporter interaction score (MYT1L): -0.193
3' UTR reporter interaction score (BRCA2): 1.09
3' UTR reporter interaction score (EZH2): -0.134
3' UTR reporter interaction score (NOTCH1): 0.298
3' UTR reporter interaction score (MYC): 0.59
3' UTR reporter interaction score (HRAS): 0.321
3' UTR reporter interaction score (FBXW7): 0.851
3' UTR reporter interaction score (ZEB2): 0.313
3' UTR reporter interaction score (PHF6): -0.896

UGAGCUAAAUGUGUGCUGGGA
3' UTR reporter interaction score (PHOX2B): 0.175
3' UTR reporter interaction score (TP53): 0.237
3' UTR reporter interaction score (MYB): 0.373
3' UTR reporter interaction score (RB1): -0.0745
3' UTR reporter interaction score (MYCN): 0.0799
3' UTR reporter interaction score (MYT1L): 1.13
3' UTR reporter interaction score (BRCA2): -0.453
3' UTR reporter interaction score (EZH2): 0.105
3' UTR reporter interaction score (NOTCH1): -0.446
3' UTR reporter interaction score (MYC): -0.176
3' UTR reporter interaction score (HRAS): -0.575
3' UTR reporter interaction score (FBXW7): -0.406
3' UTR reporter interaction score (ZEB2): 0.263
3' UTR reporter interaction score (PHF6): -0.0551

UGAGCUGCUGUACCAAAAU
3' UTR reporter interaction score (PHOX2B): 1.09
3' UTR reporter interaction score (TP53): -0.00622
3' UTR reporter interaction score (MYB): -0.26
3' UTR reporter interaction score (RB1): 0.104
3' UTR reporter interaction score (MYCN): -1.43
3' UTR reporter interaction score (MYT1L): 0.273
3' UTR reporter interaction score (BRCA2): -0.363
3' UTR reporter interaction score (EZH2): -0.391
3' UTR reporter interaction score (NOTCH1): 0.526
3' UTR reporter interaction score (MYC): -0.354
3' UTR reporter interaction score (HRAS): -0.0544
3' UTR reporter interaction score (FBXW7): 0.267
3' UTR reporter interaction score (ZEB2): 0.288
3' UTR reporter interaction score (PHF6): 0.476

UGAGGUAGUAAGUUGUAUUGUU
3' UTR reporter interaction score (PHOX2B): -0.47
3' UTR reporter interaction score (TP53): -0.165
3' UTR reporter interaction score (MYB): 0.37
3' UTR reporter interaction score (RB1): 0.186
3' UTR reporter interaction score (MYCN): -4.78
3' UTR reporter interaction score (MYT1L): 0.292
3' UTR reporter interaction score (BRCA2): 0.117
3' UTR reporter interaction score (EZH2): -3.5
3' UTR reporter interaction score (NOTCH1): 0.263
3' UTR reporter interaction score (MYC): -2.7
3' UTR reporter interaction score (HRAS): 0.519
3' UTR reporter interaction score (FBXW7): 0.412
3' UTR reporter interaction score (ZEB2): 0.389
3' UTR reporter interaction score (PHF6): -0.107

UGAGGUAGUAGAUUGUAUAGUU
3' UTR reporter interaction score (PHOX2B): 0.189
3' UTR reporter interaction score (TP53): -0.262
3' UTR reporter interaction score (MYB): 0.461
3' UTR reporter interaction score (RB1): 0.338
3' UTR reporter interaction score (MYCN): -4.33
3' UTR reporter interaction score (MYT1L): 0.00725
3' UTR reporter interaction score (BRCA2): 0.246
3' UTR reporter interaction score (EZH2): -5.6
3' UTR reporter interaction score (NOTCH1): -0.987
3' UTR reporter interaction score (MYC): -2.66
3' UTR reporter interaction score (HRAS): 0.942
3' UTR reporter interaction score (FBXW7): 0.329
3' UTR reporter interaction score (ZEB2): -0.843
3' UTR reporter interaction score (PHF6): 0.283

UGAGGUAGUAGGUUGUAUAGUU
3' UTR reporter interaction score (PHOX2B): -1.51
3' UTR reporter interaction score (TP53): 0.766
3' UTR reporter interaction score (MYB): 0.376
3' UTR reporter interaction score (RB1): -1.04
3' UTR reporter interaction score (MYCN): -4.02
3' UTR reporter interaction score (MYT1L): -0.405
3' UTR reporter interaction score (BRCA2): 0.954
3' UTR reporter interaction score (EZH2): -3.3
3' UTR reporter interaction score (NOTCH1): -0.241
3' UTR reporter interaction score (MYC): -1.94
3' UTR reporter interaction score (HRAS): 0.245
3' UTR reporter interaction score (FBXW7): 0.0535
3' UTR reporter interaction score (ZEB2): -0.683
3' UTR reporter interaction score (PHF6): 2.23

UGAGGUAGUAGGUUGUGUGGUU
3' UTR reporter interaction score (PHOX2B): 0.11
3' UTR reporter interaction score (TP53): 0.495
3' UTR reporter interaction score (MYB): 0.859
3' UTR reporter interaction score (RB1): 1.01e-16
3' UTR reporter interaction score (MYCN): -4.48
3' UTR reporter interaction score (MYT1L): 0.566
3' UTR reporter interaction score (BRCA2): 1.21
3' UTR reporter interaction score (EZH2): -3.63
3' UTR reporter interaction score (NOTCH1): -0.305
3' UTR reporter interaction score (MYC): -4.84
3' UTR reporter interaction score (HRAS): 0.13
3' UTR reporter interaction score (FBXW7): 0.642
3' UTR reporter interaction score (ZEB2): -1.14
3' UTR reporter interaction score (PHF6): 0.852

UGAGGUAGUAGUUUGUACAGU
3' UTR reporter interaction score (PHOX2B): 0.114
3' UTR reporter interaction score (TP53): 0.627
3' UTR reporter interaction score (MYB): 0.441
3' UTR reporter interaction score (RB1): 0.426
3' UTR reporter interaction score (MYCN): -3.87
3' UTR reporter interaction score (MYT1L): 0.517
3' UTR reporter interaction score (BRCA2): 0.445
3' UTR reporter interaction score (EZH2): -4.15
3' UTR reporter interaction score (NOTCH1): 0.637
3' UTR reporter interaction score (MYC): -2.59
3' UTR reporter interaction score (HRAS): 1.06
3' UTR reporter interaction score (FBXW7): -0.143
3' UTR reporter interaction score (ZEB2): -1.5
3' UTR reporter interaction score (PHF6): -0.221
